Results: ChEMBL document CHEMBL5143515, “Identification of new halogen-containing 2,4-diphenyl indenopyridin-5-one derivative as a boosting agent for the anticancer responses of clinically available topoisomerase inhibitors” (Eur J Med Chem, 2022)
Calls of active or inactive are those of the source.

Key:
[1] = tested on: HCT-15; experiment: Synergistic antiproliferative activity against human HCT-15 cells at 5 uM in presence of 1 nM camptothecin after 72 hrs by WST-1 assay; type: functional, cell-based
[2] = Toxicity in mouse assessed as increase in mean corpuscular volume of RBC at 4 mg/kg administered in combination with 2 mg/kg etoposide; type: organism-based, Erythrocyte; conditions: in vivo
[3] = target: T1, DNA topoisomerase 1 (Homo sapiens) (UniProt P11387); experiment: Catalytic inhibitor of non-intercalative topoisomerase 1 (unknown origin) assessed as binding to minor groove at 100 to 500 uM measured by cleavage complex assay; conditions: dose 100-500 µM
T1 sequence (whole entry): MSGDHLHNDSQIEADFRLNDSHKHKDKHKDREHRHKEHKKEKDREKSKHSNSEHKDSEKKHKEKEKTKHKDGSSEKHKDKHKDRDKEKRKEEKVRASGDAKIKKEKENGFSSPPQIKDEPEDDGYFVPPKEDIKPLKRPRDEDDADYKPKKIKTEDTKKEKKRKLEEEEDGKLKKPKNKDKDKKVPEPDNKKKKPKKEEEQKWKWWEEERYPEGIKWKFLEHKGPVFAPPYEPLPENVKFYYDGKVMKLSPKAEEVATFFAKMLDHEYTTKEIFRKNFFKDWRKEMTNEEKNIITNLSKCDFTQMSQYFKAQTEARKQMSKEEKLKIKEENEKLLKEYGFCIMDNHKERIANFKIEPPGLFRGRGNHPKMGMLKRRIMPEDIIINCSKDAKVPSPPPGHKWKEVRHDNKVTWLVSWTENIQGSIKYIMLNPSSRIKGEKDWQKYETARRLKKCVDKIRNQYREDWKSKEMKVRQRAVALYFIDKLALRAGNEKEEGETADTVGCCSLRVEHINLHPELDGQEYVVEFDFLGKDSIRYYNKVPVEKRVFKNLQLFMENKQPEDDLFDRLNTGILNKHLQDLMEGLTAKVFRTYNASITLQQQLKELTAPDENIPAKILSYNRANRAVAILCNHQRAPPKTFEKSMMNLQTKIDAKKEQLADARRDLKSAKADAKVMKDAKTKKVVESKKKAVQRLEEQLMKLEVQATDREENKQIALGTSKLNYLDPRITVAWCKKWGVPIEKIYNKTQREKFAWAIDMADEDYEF

[4] = Genotoxicity in human HCT-15 cells assessed as production of gamma-H2AX at 2 to 5 uM and measured in presence of 0.2 uM etoposide by western blot analysis; type: toxicity, cell-based; conditions: hct-15, 5 µM, dose 2-5 µM
[5] = Toxicity in mouse assessed as reduction in number of absolute neutrophil count at 4 mg/kg; type: organism-based; conditions: in vivo
[6] = tested on: HCT-15; experiment: Induction of apoptosis in human HCT-15 cells assessed as change in c-PARP level at 2 to 5 uM in presence of 0.2 uM etoposide and measured by Western blot analysis; type: functional, cell-based; conditions: dose 2-5 µM
[7] = tested on: DU-145; experiment: Antiproliferative activity against human DU-145 cells after 72 hrs by EZ-Cytox colorimetric assay; type: functional, cell-based; conditions: DU-145, 72 h
[8] = Toxicity in mouse assessed as increase in d red cell distribution width at 4 mg/kg; type: organism-based; conditions: in vivo
[9] = Genotoxicity in human HCT-15 cells assessed as production of fragmented DNA tails at 2 to 5 uM and measured in presence of 0.2 uM etoposide by comet assay; type: toxicity, cell-based; conditions: hct-15, 5 µM, dose 2-5 µM
[10] = tested on: HCT-15; experiment: Antiproliferative activity against human HCT-15 cells after 72 hrs by EZ-Cytox colorimetric assay; type: functional, cell-based; conditions: HCT-15, 72 h
[11] = Cytotoxicity against human MRC5 cells after 72 hrs by EZ-Cytox colorimetric assay; type: toxicity, cell-based
[12] = tested on: HCT-15; experiment: Induction of apoptosis in human HCT-15 cells assessed as change in c-caspase 7 level at 2 to 5 uM in presence of 0.2 uM etoposide and measured by Western blot analysis; type: functional, cell-based; conditions: dose 2-5 µM
[13] = Toxicity in mouse assessed as increase in mean corpuscular volume of RBC at 4 mg/kg; type: organism-based, Erythrocyte; conditions: in vivo
[14] = tested on: Calf thymus DNA; experiment: Binding affinity to calf thymus DNA assessed as DNA intercalation by measuring Stem-Volmer quenching constant at 0.01 to 0.1 uM by Hoechst displacement assay; type: nucleic-acid assay; conditions: Bos taurus; dose 0.01-0.1 µM
[15] = tested on: HCT-15; experiment: Synergistic antiproliferative activity against human HCT-15 cells at 5 uM in presence of 0.2 uM etoposide after 72 hrs by WST-1 assay; type: functional, cell-based
[16] = Toxicity in mouse assessed as reduction in hemoglobin level at 4 mg/kg administered in combination with 2 mg/kg etoposide; type: organism-based; conditions: in vivo
[17] = Genotoxicity in human HCT-15 cells assessed as production of Ub1-gamma-H2AX at 2 to 5 uM and measured in presence of 0.2 uM etoposide by western blot analysis; type: toxicity, cell-based; conditions: hct-15, 5 µM, dose 2-5 µM
[18] = tested on: T47D; experiment: Antiproliferative activity against human T47D cells after 72 hrs by EZ-Cytox colorimetric assay; type: functional, cell-based
[19] = Genotoxicity in human HCT-15 cells assessed as production of Ub1-gamma-H2AX at 2 to 5 uM and measured by western blot analysis; type: toxicity, cell-based; conditions: hct-15, 5 µM, dose 2-5 µM
[20] = Cytotoxicity against mouse M2-10B4 cells after 72 hrs by EZ-Cytox colorimetric assay; type: toxicity, cell-based
[21] = tested on: HCT-15; experiment: Induction of apoptosis in human HCT-15 cells assessed as change in c-PARP level at 2 to 5 uM in presence of 1 nM camptothecin and measured by Western blot analysis; type: functional, cell-based; conditions: dose 2-5 µM
[22] = Genotoxicity in human HCT-15 cells assessed as production of gamma-H2AX at 2 to 5 uM and measured in presence of 1 nM camptothecin by western blot analysis; type: toxicity, cell-based; conditions: hct-15, 5 µM, dose 2-5 µM
[23] = Toxicity in mouse assessed as reduction in number of white blood cells at 4 mg/kg in presence of 2 mg/kg etoposide; type: organism-based; conditions: in vivo
[24] = tested on: Calf thymus DNA; experiment: Binding affinity to calf thymus DNA assessed as DNA intercalation at 5 to 40 uM by fluorescence based EtBr-displacement assay; type: nucleic-acid assay; conditions: Bos taurus; dose 5-40 µM
[25] = Genotoxicity in human HCT-15 cells assessed as production of fragmented DNA tails at 2 to 5 uM and measured by comet assay; type: toxicity, cell-based; conditions: hct-15, 5 µM, dose 2-5 µM
[26] = target: T1, DNA topoisomerase 1 (Homo sapiens); experiment: Inhibition of recombinant human topoisomerase 1 assessed as relaxation of supercoiled plasmid pBR322 DNA at 20 uM by agarose gel electrophoresis (reference value: 40.4%)
[27] = target: DNA topoisomerase 2-alpha (Homo sapiens) (UniProt P11388); experiment: Inhibition of recombinant human topoisomerase 2alpha assessed as relaxation of supercoiled plasmid pBR322 DNA at 20 uM by agarose gel electrophoresis (reference value: 48.4%)
[28] = Toxicity in mouse assessed as reduction in number of red blood cells at 4 mg/kg; type: organism-based; conditions: in vivo
[29] = target: T1, DNA topoisomerase 1 (Homo sapiens); experiment: Inhibition of recombinant human topoisomerase 1 assessed as relaxation of supercoiled plasmid pBR322 DNA at 100 uM by agarose gel electrophoresis (reference value: 83.2%)
[30] = Toxicity in mouse assessed as reduction in number of white blood cells at 4 mg/kg; type: organism-based; conditions: in vivo
[31] = target: DNA topoisomerase 2-alpha (Homo sapiens) (UniProt P11388); experiment: Catalytic inhibitor of non-intercalative topoisomerase 2alpha (unknown origin) assessed as binding to minor groove at 250 to 500 uM measured by cleavage complex assay; conditions: dose 250-500 µM

DNA topoisomerase 2-alpha (Homo sapiens), sequence (P11388 whole entry): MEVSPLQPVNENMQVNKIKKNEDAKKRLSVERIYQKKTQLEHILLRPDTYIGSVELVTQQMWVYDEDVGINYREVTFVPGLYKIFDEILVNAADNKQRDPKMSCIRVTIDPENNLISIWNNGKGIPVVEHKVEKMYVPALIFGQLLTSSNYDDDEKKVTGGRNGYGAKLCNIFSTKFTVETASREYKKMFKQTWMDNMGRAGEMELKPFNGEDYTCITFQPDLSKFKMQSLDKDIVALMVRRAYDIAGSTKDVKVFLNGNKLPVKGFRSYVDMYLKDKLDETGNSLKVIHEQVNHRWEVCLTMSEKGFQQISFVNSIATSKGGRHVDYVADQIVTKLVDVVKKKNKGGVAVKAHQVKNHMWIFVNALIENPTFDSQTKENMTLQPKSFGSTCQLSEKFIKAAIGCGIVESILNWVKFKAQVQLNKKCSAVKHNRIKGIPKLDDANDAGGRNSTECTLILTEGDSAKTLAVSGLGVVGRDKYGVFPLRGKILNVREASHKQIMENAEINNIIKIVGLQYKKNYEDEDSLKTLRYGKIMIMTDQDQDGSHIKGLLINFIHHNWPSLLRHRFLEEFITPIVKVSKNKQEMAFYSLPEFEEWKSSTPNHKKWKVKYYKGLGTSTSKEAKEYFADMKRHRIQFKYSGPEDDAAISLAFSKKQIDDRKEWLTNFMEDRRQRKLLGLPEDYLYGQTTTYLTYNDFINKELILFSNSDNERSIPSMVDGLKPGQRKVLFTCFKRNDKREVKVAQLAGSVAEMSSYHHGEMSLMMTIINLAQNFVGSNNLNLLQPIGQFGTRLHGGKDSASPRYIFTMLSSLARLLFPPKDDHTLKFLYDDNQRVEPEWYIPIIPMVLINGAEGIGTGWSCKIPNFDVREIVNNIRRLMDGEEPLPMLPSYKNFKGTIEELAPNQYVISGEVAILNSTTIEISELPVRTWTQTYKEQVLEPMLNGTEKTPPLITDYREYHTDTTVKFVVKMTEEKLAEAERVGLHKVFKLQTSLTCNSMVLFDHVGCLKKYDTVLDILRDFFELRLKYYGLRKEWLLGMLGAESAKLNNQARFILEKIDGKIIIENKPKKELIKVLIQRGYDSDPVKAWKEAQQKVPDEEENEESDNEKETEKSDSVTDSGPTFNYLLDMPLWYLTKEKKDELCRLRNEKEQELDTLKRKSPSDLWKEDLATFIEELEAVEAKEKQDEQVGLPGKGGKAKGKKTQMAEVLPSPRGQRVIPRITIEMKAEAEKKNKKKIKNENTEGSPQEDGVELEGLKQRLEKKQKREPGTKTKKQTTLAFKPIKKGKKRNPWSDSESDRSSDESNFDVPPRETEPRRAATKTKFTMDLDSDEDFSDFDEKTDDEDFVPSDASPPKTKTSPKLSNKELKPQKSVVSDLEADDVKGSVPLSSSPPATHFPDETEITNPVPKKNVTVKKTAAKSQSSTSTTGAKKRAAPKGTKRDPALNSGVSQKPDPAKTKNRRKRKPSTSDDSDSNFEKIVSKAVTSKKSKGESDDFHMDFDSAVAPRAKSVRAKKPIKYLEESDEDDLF

O=C1c2ccccc2-c2nc(-c3ccc(Br)cc3)cc(-c3ccccc3)c21
active: Activity [1] | inhibition [3] | Activity [6] | Activity [12] | Activity [15] | Activity [21] | Activity [24] | inhibition [31]
2.09 10^6/M: KSV [14]
32.7 µM: IC50 [18]
6.6%: inhibition [27]
1.8%: inhibition [26]
4.84 µM: IC50 [7]
87%: inhibition [29]
7.84 µM: IC50 [10]
> 10 µM: IC50 at 72 h [11] | IC50 at 72 h [20]
Non-Toxic: Activity [2] | Activity [4] | Activity [5] | Activity [8] | Activity [9] | Activity [13] | Activity [16] | Activity [17] | Activity [19] | Activity [22] | Activity [23] | Activity [25] | Activity [28] | Activity [30]
